Usually Kd stands for the constant that tells how readily two partners part at equilibrium. Low readings indicate a tighter complex, high ones a looser complex.

The source of these data is paper PMC12593347, “Profiling Class-Wide Bioactivities of Flavonoids While Minimizing Compound-Specific Effects Using an Equimolar Mixture Strategy” (Journal of Agricultural and Food Chemistry, 2025).

In the test the target is T1, amyloid-β1–42 (Aβ1–42) (Homo sapiens, UniProt P05067).
T1 construct: gene APP; Aβ1–42 monomers, biotinylated, immobilized on streptavidin biosensor
The test is described as follows: biolayer interferometry (Octet R8), steady-state […] fit. It counts as binding.

T1 sequence (P05067 672-713): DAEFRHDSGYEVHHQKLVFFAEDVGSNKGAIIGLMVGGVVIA

`O=C(O[C@@H]1Cc2c(O)cc(O)cc2O[C@@H]1c1cc(O)c(O)c(O)c1)c1cc(O)c(O)c(O)c1` [EGCG] registered a Kd of 93 µM.
